Results on eight molecules are retold here after US20250236614A1, “BICYCLIC TETRAHYDROAZEPINE DERIVATIVES” (Hoffmann-La Roche Inc., priority 2022, published 2025).

pEC50, pIC50: −log10 of the molar value.

DGK α kinase, sequence (P23743 whole entry): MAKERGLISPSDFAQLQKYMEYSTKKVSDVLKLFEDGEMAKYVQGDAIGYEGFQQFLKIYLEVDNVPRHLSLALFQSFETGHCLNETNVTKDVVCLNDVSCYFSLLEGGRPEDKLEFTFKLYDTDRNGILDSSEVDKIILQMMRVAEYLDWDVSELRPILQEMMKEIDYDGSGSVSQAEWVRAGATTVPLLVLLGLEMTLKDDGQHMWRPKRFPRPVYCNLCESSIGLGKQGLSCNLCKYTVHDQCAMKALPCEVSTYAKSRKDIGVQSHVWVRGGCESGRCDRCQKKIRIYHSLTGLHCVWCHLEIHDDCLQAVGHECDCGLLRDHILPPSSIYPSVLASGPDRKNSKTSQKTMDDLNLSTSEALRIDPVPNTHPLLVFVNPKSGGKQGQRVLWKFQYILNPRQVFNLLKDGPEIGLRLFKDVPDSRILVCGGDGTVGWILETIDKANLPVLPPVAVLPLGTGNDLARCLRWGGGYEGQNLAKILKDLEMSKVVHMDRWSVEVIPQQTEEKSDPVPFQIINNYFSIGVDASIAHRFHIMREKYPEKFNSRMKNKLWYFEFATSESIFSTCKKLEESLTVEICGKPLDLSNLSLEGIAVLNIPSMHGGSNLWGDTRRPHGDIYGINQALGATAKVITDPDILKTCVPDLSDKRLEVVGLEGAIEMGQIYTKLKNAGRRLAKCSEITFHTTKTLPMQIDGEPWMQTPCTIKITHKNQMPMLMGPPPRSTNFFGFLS
DGK ζ kinase, sequence (Q13574 whole entry): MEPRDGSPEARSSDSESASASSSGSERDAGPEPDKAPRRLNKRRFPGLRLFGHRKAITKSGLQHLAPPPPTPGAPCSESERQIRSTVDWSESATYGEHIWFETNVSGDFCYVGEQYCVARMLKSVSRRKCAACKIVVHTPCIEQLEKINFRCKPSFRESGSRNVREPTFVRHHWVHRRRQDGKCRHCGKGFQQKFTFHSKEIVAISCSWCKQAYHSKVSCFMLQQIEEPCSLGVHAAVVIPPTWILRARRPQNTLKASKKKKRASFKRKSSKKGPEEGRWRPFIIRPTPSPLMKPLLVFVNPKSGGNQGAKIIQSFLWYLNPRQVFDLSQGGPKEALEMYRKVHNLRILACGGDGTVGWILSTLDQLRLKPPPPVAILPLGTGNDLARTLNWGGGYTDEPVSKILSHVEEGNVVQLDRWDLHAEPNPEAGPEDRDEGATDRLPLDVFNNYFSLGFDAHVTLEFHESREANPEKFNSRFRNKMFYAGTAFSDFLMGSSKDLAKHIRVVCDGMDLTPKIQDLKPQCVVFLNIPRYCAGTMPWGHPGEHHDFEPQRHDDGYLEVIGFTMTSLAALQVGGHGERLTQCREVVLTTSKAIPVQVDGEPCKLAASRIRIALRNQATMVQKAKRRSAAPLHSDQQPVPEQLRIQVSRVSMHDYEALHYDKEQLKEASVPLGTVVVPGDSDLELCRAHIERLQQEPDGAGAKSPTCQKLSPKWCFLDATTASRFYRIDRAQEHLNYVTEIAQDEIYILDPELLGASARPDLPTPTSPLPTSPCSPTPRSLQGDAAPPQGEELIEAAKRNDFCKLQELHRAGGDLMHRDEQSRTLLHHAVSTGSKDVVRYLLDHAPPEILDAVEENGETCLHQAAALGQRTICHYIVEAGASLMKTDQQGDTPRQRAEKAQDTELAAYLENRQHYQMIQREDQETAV

The target in one assay is T1, hDGKalpha(1-735)-N-His (DGKA) (Homo sapiens, UniProt P23743).
T1 construct: hDGKalpha(1-735)-N-His; His (N)
T1 sequence (P23743 whole entry): as the sequence (P23743 whole entry) above
In words: In vitro DGK inhibition assay (ADP-Glo, in house), DGK alpha. As to conditions: isomer A; 4 nM DGK α, 25 μM ATP, 125 μM DLG in liposomes, 1 hour reaction; read-out: DGKalpha ADP Glo assay IC50. It is filed as biochemical. As to the method:
(§1) DGK α and ζ kinase use ATP to phosphorylate the substrate 1,2-dilauroyl-sn-glycerol (DLG, incorporated in the liposomes). ATP is converted to ADP as a result of this enzymatic reaction.
(§2) After the kinase reaction, an ATP-depletion reagent is added to terminate the kinase reaction and deplete any remaining ATP, leaving only ADP. Second, a detection reagent is added to simultaneously convert ADP to ATP and allow the newly synthesized ATP to be converted to light using a coupled luciferase/luciferin reaction.
(§3) Full length DGKA and Z were expressed in Sf21 insect cells by infecting the cells with the baculovirus stock at MOI of 2. Purification of both enzymes was performed as previously described by Takahashi et al., PeerJ, 2018 (Takahashi, D.; Sakane, F. Expression and purification of human diacylglycerolkinase alpha from baculovirus-infected insect cells for structural studies. PeerJ2018, 6, No. e5449).
(§4) A concentrated liposome solution was prepared in assay buffer without DTT and BSA: 2 mM of DLG in 21 mM of total liposome (2 mM DLG/8 mM PS/11 mM PC). The reaction mixtures contain the assay buffer with a final DLG concentration of 125 μM ATP concentrations of 25 μM (for DGKA assay) or 50 μM (for DGKZ assay). The reactions were started by addition of DGK α and ζ kinases at 4 nM and 2 nM final concentrations, respectively. After 1 hour reaction, the amount of ADP formed was detected with the ADP-Glo kinase assay (Promega) according to the manufacturer instructions. Compounds were added in 11I-points dose response, starting at 10 mM, 1:3 dilutions, with a final DMSO concentration of […]. The multidrop combi was used as a liquid handler and luminescence was read with 0.5 s by the envision reader (PE).
(In ADP-Glo the light output rises with the ADP produced.)
One may read the pIC50 as the negative decadic logarithm of the IC50, by convention in mol/L. For `CC(C)(C)c1cncc(-c2cc3c(cc2F)C(F)(F)C[C@@H](N)C(=O)N3Cc2ccc(Cl)cc2)c1` (single isomer, unassigned) [Example 18], the pIC50 was under 4.20.
On the same count and under the same terms, the same measure for `CC(C)(C#N)c1nnc(-c2cc3c(cc2F)C(F)(F)C[C@@H](N)C(=O)N3Cc2ccc(Oc3ccccc3)cc2)o1` (single isomer, unassigned) [Example 11]: 5.48.
On the same count and under the same terms, the figure for `CC(C)(C#N)c1nnc(-c2cc3c(cc2F)C(F)(F)C[C@@H](N)C(=O)N3Cc2ccc(-n3cc(C(F)(F)F)cn3)nc2)o1` (single isomer, unassigned) [Example 46] is 4.75; for `CC(C)(C#N)c1nnc(-c2cc3c(cc2F)C(F)(F)C[C@@H](N)C(=O)N3Cc2ccc(-c3cnn(C(F)(F)F)c3)cc2)o1` (single isomer, unassigned) [Example 48] it is 5.82.
Same read-out and setting: the same measure for `CC(C)(C#N)c1nnc(-c2cc3c(cc2F)C(F)(F)C[C@@H](N)C(=O)N3Cc2ccc(-n3cc(C(F)(F)F)cn3)c(F)c2)o1` (single isomer, unassigned) [Example 47]: 4.63.

The target in the next assay is T2, hDGKzeta(1-928)-N-His (DGKZ) (Homo sapiens, UniProt Q13574).
T2 construct: hDGKzeta(1-928)-N-His; His (N)
T2 sequence (Q13574 whole entry): as the sequence (Q13574 whole entry) above
In words: In vitro DGK inhibition assay (ADP-Glo, in house), DGK zeta. It is filed as biochemical. As to conditions: isomer A; 2 nM DGK ζ, 50 μM ATP, 125 μM DLG in liposomes, 1 hour reaction; read-out: DGKzeta ADP Glo assay IC50. As to the method:
as §1, §2, §3, §4
In the case of `CC(C)(C)c1cncc(-c2cc3c(cc2F)C(F)(F)C[C@@H](N)C(=O)N3Cc2ccc(Cl)cc2)c1` (single isomer, unassigned) [Example 18], the negative-log IC50 (pIC50) was under 4.20.
Still for that read-out and setting: the figure for `CC(C)(C#N)c1nnc(-c2cc3c(cc2F)C(F)(F)C[C@@H](N)C(=O)N3Cc2ccc(Oc3ccccc3)cc2)o1` (single isomer, unassigned) [Example 11] is 5.90; for `CC(C)(C#N)c1nnc(-c2cc3c(cc2F)C(F)(F)C[C@@H](N)C(=O)N3Cc2ccc(-n3cc(C(F)(F)F)cn3)nc2)o1` (single isomer, unassigned) [Example 46] it is 5.17; for `CC(C)(C#N)c1nnc(-c2cc3c(cc2F)C(F)(F)C[C@@H](N)C(=O)N3Cc2ccc(-c3cnn(C(F)(F)F)c3)cc2)o1` (single isomer, unassigned) [Example 48] it is 5.31.
On to `CC(C)(C#N)c1nnc(-c2cc3c(cc2F)C(F)(F)C[C@@H](N)C(=O)N3Cc2ccc(-n3cc(C(F)(F)F)cn3)c(F)c2)o1` (single isomer, unassigned) [Example 47], for which the negative-log IC50 (pIC50) was 5.52.

A further assay has as its target DGK α kinase (Homo sapiens, UniProt P23743). As to the kind of experiment: In vitro DGK inhibition assay (ADP Glo) run by Reaction Biology Corp., DGK alpha. It is filed as biochemical. As to conditions: isomer A, 2 nM kinase, 50 μM ATP, 500 uM DLG, 10-dose, 3-fold dilution starting at 1 μM, read-out: DGKalpha IC50. The protocol: (§5) DGK α and ζ kinase use ATP to phosphorylate the substrate 1,2-dilauroyl-sn-glycerol (DLG). ATP is converted to ADP as a result of this enzymatic reaction.
as §2
(§6) DGK α and ζ kinase ADP Glo assays were ran by Reaction Biology Corp., 1 Great Valley Parkway, Suite 2, Malverm, 19355, PA, USA. Information provided by the service provider are the following: DGK α and ζ kinases were used at 2 nM final concentration. Reactions were carried out at 50 μM ATP. 500 uM of the substrate DLG (Dilauroyl-sn-glycerol) was used. Compounds were received at 10 mM DMSO stock solution and were tested in 10-dose IC50 duplicate with 3-fold serial dilution starting at 1 μM. A control compound, Calphostin C, was tested in 10-dose IC50 with 3-fold serial dilution starting at 100 μM.
In the case of `CC(C)(C#N)c1nnc(-c2cc3c(cc2F)C(F)(F)C[C@@H](N)C(=O)N3Cc2ccc(Oc3ccccc3)cc2)o1` (single isomer, unassigned) [Example 11], the negative logarithm of the IC50 (pIC50) was 8.16.

The target of another assay is DGK ζ kinase (Homo sapiens, UniProt Q13574). In words: In vitro DGK inhibition assay (ADP Glo) run by Reaction Biology Corp., DGK zeta. It is filed as biochemical. As to conditions: isomer A, 2 nM kinase, 50 μM ATP, 500 uM DLG, 10-dose, 3-fold dilution starting at 1 μM, read-out: DGKzeta IC50. As to the method:
as §5, §2, §6
On to `CC(C)(C#N)c1nnc(-c2cc3c(cc2F)C(F)(F)C[C@@H](N)C(=O)N3Cc2ccc(Oc3ccccc3)cc2)o1` (single isomer, unassigned) [Example 11], for which the pIC50 was 7.69.

The next assay relates to primary human T-cells. In words: T-cell proliferation assay (CellTiter-Glo). It is filed as cell-based. As to conditions: Homo sapiens, T-cell, 120 h; isomer A; CD3 antibody-stimulated T-cells, CellTiter-Glo after 5 days; read-out: Tcell Proliferation CD3 EC50. The protocol: Expanded primary human T-cells are thawed and cultured in RPMI 1640 (Gibco, #61870-010)+5% human serum (HS, Sigma, #H3667)+1 mM Sodium Pyruvate (Gibco, #11360-039)+50 μM 2-mercaptoethanol (Gibco, #31350-010) and 1× Pen-Strep (Life Technologies, #15140122) medium at density of 2 Mio/ml for 3 hours in 5% CO2, 37° C. and 95% humidity. For coating of plates, PBS++ only or PBS++ with CD3 antibody (concentration depending on donor and determined by CD3 titrations) is added 100 μl/well to Poly-D Lysine coated 96-well plates. Plates are sealed and incubated at room temperature for 3 hours on a table-top rocking platform. After incubation, plates are washed once with PBS−− and filled with 40 μl/well culture medium only. Compounds are then added (see next section) to medium only plates. After 3 hours of culturing the T-cells, cells are filtered through a cell strainer (Miltenyi Biotech, #130-041-407), counted again and concentration is adjusted to 1.25 Mio/ml.
Cells are then seeded 80 μl/well to the 40 μl/well including dispensed compounds according to plate layout. By adding cells, compounds are further diluted 1:3, and resulting in 100k cells/120 μl/well. After 48 hours 40 μl of supernatant is collected carefully from the top while not disturbing the cells. Cells are assessed for proliferation 5 days later by measuring […] using CellTiterGlo (Promega).
Compounds were added in a 5 or 6 pt dose response with the Tecan D300e Digital Dispenser, all conditions 3 times more concentrated than the end-concentration, since cells are added afterwards (80 μl cells to 40 μl prepared medium with treatment). The DR was starting at 20 μM or 10 μM final top concentration and a dilution factor of 3.333. The positive control was the reference compound A1 that was added in a dose response as well, additionally to 3 wells of only 20 μM representing the positive stimulator control. All wells were normalized with DMSO to a final concentration of 0.6% (0.2% end-concentration).
After 5 days, for detection of ATP which is directly proportional to the number of cells present per well, the CellTiter-Glo® 2.0 Reagent is used. After visual control for toxicity or precipitations of the tested compounds, the plates are equilibrated to room temperature for 45 minutes. CellTiter-Glo® 2.0 Reagent is equilibrated to room temperature as well. After equilibration, an equal amount of CellTiter-Glo reagent is added to the cells (80 μl/well) with an electronic multichannel pipette. Plates are placed on a rocking platform for 15 minutes at room temperature. After incubation, the bottom of the plates is sealed with backing tape. Luminescence is measured with PHERAstar FSX (interval time 0.5 sec, gain 3000, focal height 15 mm) and exported as CSV file for analysis in Genedata screener.
CD3 and PBS plates were analysed separately in Genedata Screener using Roche Normalization PCT_POS_CTRL with DMSO set as Neutral Control and 20 μM of the reference compound A1 set as Stimulator Control/100%.
For CD3 conditions EC50 and Emax of the fitted sigmoidal curve were reported. If no curve could be fitted, the EC50 was reported as blank field and the Emax was based on individual data points. […] Compounds which activate unstimulated cells (see IL2 measurements) or compounds which negatively affected viability were flagged.
In general terms: Cellular ATP, detected with luciferase, serves as a proxy for viable cell number.
For the molecule `CC(C)(C#N)c1nnc(-c2cc3c(cc2F)C(F)(F)C[C@@H](N)C(=O)N3Cc2ccc(-n3cc(C(F)(F)F)cn3)cc2F)o1` (single isomer, unassigned) [Example 44], the pEC50 is 5.84.
Still for that read-out and setting: the same measure for `CC(C)(C)c1cncc(-c2cc3c(cc2F)C(F)(F)C[C@@H](N)C(=O)N3Cc2ccc(Cl)cc2)c1` (single isomer, unassigned) [Example 18]: 6.18.
Still for that read-out and setting: the same measure for `CC(C)(C#N)c1nnc(-c2cc3c(cc2F)C(F)(F)C[C@@H](N)C(=O)N3Cc2ccc(-n3cc(C(F)(F)F)cn3)nc2F)o1` (single isomer, unassigned) [Example 45]: 5.53; for `CC(C)(C#N)c1nnc(-c2cc3c(cc2F)C(F)(F)C[C@@H](N)C(=O)N3Cc2ccc(Oc3ccccc3)cc2)o1` (single isomer, unassigned) [Example 11]: 6.72; for `CC(C)(C#N)c1nnc(-c2cc3c(cc2F)C(F)(F)C[C@@H](N)C(=O)N3Cc2ccc(-n3cc(OC(F)(F)F)cn3)cc2)o1` (single isomer, unassigned) [Example 43]: 7.63.
On the same count and under the same terms, the same measure for `CC(C)(C#N)c1nnc(-c2cc3c(cc2F)C(F)(F)C[C@@H](N)C(=O)N3Cc2ccc(-n3cc(C(F)(F)F)cn3)nc2)o1` (single isomer, unassigned) [Example 46]: 6.27.
As to `CC(C)(C#N)c1nnc(-c2cc3c(cc2F)C(F)(F)C[C@@H](N)C(=O)N3Cc2ccc(-c3cnn(C(F)(F)F)c3)cc2)o1` (single isomer, unassigned) [Example 48], the pEC50 was 6.79.
Same read-out and setting: the figure for `CC(C)(C#N)c1nnc(-c2cc3c(cc2F)C(F)(F)C[C@@H](N)C(=O)N3Cc2ccc(-n3cc(C(F)(F)F)cn3)c(F)c2)o1` (single isomer, unassigned) [Example 47] is 6.30.

The assay is the same for the next values; noted with them: Homo sapiens, T-cell, 120 h; isomer A; CD3 condition, 5 days; 20 μM reference compound A1 = 100%, DMSO neutral control; read-out: Emax proliferation (% activation).
Turning to `CC(C)(C#N)c1nnc(-c2cc3c(cc2F)C(F)(F)C[C@@H](N)C(=O)N3Cc2ccc(-n3cc(C(F)(F)F)cn3)cc2F)o1` (single isomer, unassigned) [Example 44], the Emax was 126%.
On the same count and under the same terms, the figure for `CC(C)(C)c1cncc(-c2cc3c(cc2F)C(F)(F)C[C@@H](N)C(=O)N3Cc2ccc(Cl)cc2)c1` (single isomer, unassigned) [Example 18] is 52%.
Same read-out and setting: the figure for `CC(C)(C#N)c1nnc(-c2cc3c(cc2F)C(F)(F)C[C@@H](N)C(=O)N3Cc2ccc(-n3cc(C(F)(F)F)cn3)nc2F)o1` (single isomer, unassigned) [Example 45] is 67%; for `CC(C)(C#N)c1nnc(-c2cc3c(cc2F)C(F)(F)C[C@@H](N)C(=O)N3Cc2ccc(Oc3ccccc3)cc2)o1` (single isomer, unassigned) [Example 11] it is 88%; for `CC(C)(C#N)c1nnc(-c2cc3c(cc2F)C(F)(F)C[C@@H](N)C(=O)N3Cc2ccc(-n3cc(OC(F)(F)F)cn3)cc2)o1` (single isomer, unassigned) [Example 43] it is 105%.
On the same count and under the same terms, the figure for `CC(C)(C#N)c1nnc(-c2cc3c(cc2F)C(F)(F)C[C@@H](N)C(=O)N3Cc2ccc(-n3cc(C(F)(F)F)cn3)nc2)o1` (single isomer, unassigned) [Example 46] is 87%.
On to `CC(C)(C#N)c1nnc(-c2cc3c(cc2F)C(F)(F)C[C@@H](N)C(=O)N3Cc2ccc(-c3cnn(C(F)(F)F)c3)cc2)o1` (single isomer, unassigned) [Example 48], for which the Emax was determined as 171%.
Same read-out and setting: the figure for `CC(C)(C#N)c1nnc(-c2cc3c(cc2F)C(F)(F)C[C@@H](N)C(=O)N3Cc2ccc(-n3cc(C(F)(F)F)cn3)c(F)c2)o1` (single isomer, unassigned) [Example 47] is 98%.
